Test results reported in PubChem BioAssay (NCI).
“And” between values parts separate entries of the source, which are not always exact repeats. Identical values can stand only once.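 Results reflect a 48-hour exposure of cells in 96-well plates to compound at five concentrations. GI50: concentration for 50% inhibition of growth. TGI: total growth inhibition.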

Columns and labels:
Assay in all cases: inhibition of tumour cell growth, NCI panel, 48 h
SR leukemia = test system: SR leukemia
HT29 colon = test system: HT29 colon
HL-60(TB) leukemia = test system: HL-60(TB) leukemia
SNB-75 CNS = test system: SNB-75 CNS
SK-MEL-5 melanoma = test system: SK-MEL-5 melanoma
NCI-H226 lung = test system: NCI-H226 lung
SK-OV-3 ovarian = test system: SK-OV-3 ovarian
T-47D breast = test system: T-47D breast
A549 NSCLC = test system: A549 NSCLC
SF-268 CNS = test system: SF-268 CNS

SMILES | GI50 (SR leukemia) | TGI (SR leukemia) | GI50 (HT29 colon) | TGI (HT29 colon) | GI50 (HL-60(TB) leukemia) | TGI (HL-60(TB) leukemia) | GI50 (SNB-75 CNS) | TGI (SNB-75 CNS) | GI50 (SK-MEL-5 melanoma) | TGI (SK-MEL-5 melanoma) | GI50 (NCI-H226 lung) | TGI (NCI-H226 lung) | GI50 (SK-OV-3 ovarian) | TGI (SK-OV-3 ovarian) | GI50 (T-47D breast) | TGI (T-47D breast) | GI50 (A549 NSCLC) | TGI (A549 NSCLC) | GI50 (SF-268 CNS) | TGI (SF-268 CNS)
O=C(NCCNC1=CC(=O)c2nc3ccccc3c3ccnc1c23)c1cnccn1 | 9.26 µM | > 100 µM | 33 µM | > 100 µM | 42.8 µM | > 100 µM | > 100 µM | > 100 µM | 54.7 µM | > 100 µM | 90.7 µM | > 100 µM | > 100 µM | > 100 µM | 44.7 µM | > 100 µM | 36.3 µM | > 100 µM | 31 µM | > 100 µM
CC(C)(C)c1cnc(CSc2cnc(NC(=O)C3CCNCC3)s2)o1 | 0.0346 µM and 0.0265 µM | 1.6 µM | 0.181 µM and 0.182 µM |  | 0.0937 µM and 0.0791 µM | 0.976 µM and 0.461 µM | 0.15 µM and 0.124 µM | 0.4 µM and 0.324 µM | 0.238 µM and 0.563 µM | 0.644 µM and 2.18 µM | 0.663 µM and 0.222 µM |  | 0.475 µM and 0.569 µM | > 100 µM | 0.251 µM and 0.225 µM | 0.847 µM and > 4.35 µM | 0.256 µM and 0.23 µM | > 10 µM | 0.185 µM and 0.281 µM | 2.48 µM and > 3.39 µM
Cc1nc2sc(C(=O)Nc3cccc(Cl)c3)c(N)c2cc1C(O)c1ccccc1 (centres undefined) | 0.414 µM | > 100 µM | 0.387 µM | > 100 µM | 0.401 µM | 6.67 µM | 0.243 µM | 12.3 µM | 0.622 µM | 2.2 µM | 3.53 µM | 26.6 µM | 1.22 µM | 16.1 µM | 0.997 µM | 33 µM | 1.59 µM | 38.8 µM | 2.66 µM | 28.3 µM
COc1cc(-c2ccc[nH]2)[nH]c1/C=C1\N=C(C)C(C(=O)NC(C)C)=C1C | 2.17 µM | 7.87 µM | 0.508 µM | 10.8 µM | 2.4 µM | 10.3 µM | 4.94 µM | 17.2 µM | 1.34 µM | 2.7 µM | 3.77 µM | 20.4 µM | 10.7 µM | 22.8 µM | 3.02 µM | 10.7 µM | 2.94 µM | 10.5 µM | 4.78 µM | 18 µM
Fc1cccc(C2ON=C(c3ccccc3)N2C23CC4CC(CC(C4)C2)C3)c1 (centres undefined) |  | > 10 µM |  | > 10 µM |  | > 10 µM |  | > 10 µM |  | > 10 µM |  | > 10 µM |  | > 10 µM |  | > 10 µM |  | > 10 µM |  | > 10 µM
CCCCCCC1CCCCN1C(c1ccccc1)C(O)c1ccccc1 (centres undefined) | 2.94 µM | 8.54 µM | 3.09 µM | 12.2 µM | 3.01 µM | 7.01 µM | 11.4 µM | 23.7 µM | 2.48 µM | 5.88 µM | 7.74 µM | 21.9 µM | 12.2 µM | 25.1 µM | 4.68 µM | 19.1 µM | 7.62 µM | 21.4 µM | 10.9 µM | 23.1 µM
COc1cc(OC)c(OC)cc1/C=C\c1ccnc2ccccc12 |  | > 100 µM |  | 16.1 µM |  | 5 µM |  | 2.51 µM |  | 19.7 µM |  | 30.2 µM |  | 9.68 µM |  | > 100 µM |  | > 72.6 µM |  | > 86.2 µM
NCC[PH+](c1ccccc1)c1ccccc1.NCC[PH+](c1ccccc1)c1ccccc1.[Cl-].[Pt+4] | 29.7 µM | > 100 µM | 85 µM | > 100 µM | 1.8 µM | > 57.8 µM | > 100 µM | > 100 µM | > 100 µM | > 100 µM | > 100 µM | > 100 µM | > 100 µM | > 100 µM | > 100 µM | > 100 µM | > 100 µM | > 100 µM | > 100 µM | > 100 µM
CC(C)(C)OC(=O)CC(S(=O)(=O)c1ccccc1)S(=O)(=O)c1ccccc1 | 3.1 µM | 12.1 µM |  |  | 3.19 µM | 12.2 µM | 14.2 µM | 31.1 µM | 15.5 µM | 28.8 µM | 4.84 µM | 22.7 µM |  |  | 2.32 µM | 4.48 µM | 18.3 µM | 38.9 µM | 16.5 µM | 34.4 µM
CN(Cc1cnc2nc(N)nc(N)c2n1)c1c(Cl)cc(C(=O)NC(CCC(=O)O)C(=O)O)cc1Br (centres undefined) | < 0.01 µM | > 100 µM | < 0.01 µM | > 100 µM | < 0.01 µM | > 100 µM |  |  | 0.0313 µM | > 100 µM | 0.0237 µM | > 100 µM | 0.0595 µM | > 100 µM | 0.261 µM | > 100 µM | < 0.01 µM | > 100 µM | < 0.01 µM | > 100 µM
c1ccc(-c2nc3ccccc3[nH]2)c(OCCCCCOc2ccccc2-c2nc3ccccc3[nH]2)c1 | 2.27 µM | 13.1 µM | 12.1 µM | 44.1 µM | 2.57 µM | 7.76 µM | 8.78 µM | 47.4 µM | 6.07 µM | 19.5 µM | 20 µM | 47.4 µM | 14.2 µM | 34 µM | 3.18 µM | 18.6 µM |  |  | 3.44 µM | 23.2 µM
CC(=O)OCCc1cc2ccccc2oc1=O |  | > 100 µM |  | > 100 µM |  | > 100 µM |  | > 100 µM |  | > 100 µM |  | > 100 µM |  |  |  | > 100 µM |  | > 100 µM |  | > 100 µM
